From patent US5260386A, “Synthesis of tagged polymers by post-polymerization (trans) amidation reaction” (Nalco Chemical Company, priority 1993, dated 1993)

Columns and labels:
[1] = Survey of relative performance of fluorescent derivatizing agents against a cooling water background; type: physicochemical; details: for Fluorescent Maximum, emission (em) / Fluorescent Maximum, excitation (ex): 0.4 ppm (acid actives) aqueous solution; for Relative Intensity Value, Composition: 0.4 ppm (acid actives), 1,5-naphthalene disulfonic acid standard = 100%, at own fluorescence maximum; for Relative Performance: composition relative intensity / cooling water background relative intensity
Excerpt: In preferred embodiment the derivatizing agents are selected from those that a reasonably high "relative performance" for a given background. As noted above, a molecule is generally considered highly fluorescent when it has a fluorescent quantum efficiency, or fluorescent quantum yield, within the range of from about 0.1 to about 1.0, and a light absorbance molar extinction coefficient of at least 1,000. The magnitude of fluorescent signal, or relative fluorescence, is the product of the fluorescent quantum yield multiplied times the light absorbance molar extinction coefficient. […] The "relative performance", as this phrase is used herein, is the ratio of the relative fluorescence of a composition to the relative fluorescence of a given background medium. The fluorescence readings are typically measured at the excitation/emission wavelengths that represent major peaks for the given fluorescent tagged polymer. […] Some generalities may be considered. Industrial cooling waters generally have an overall higher fluorescent intensity than industrial boiler waters, and therefore a degree of polymer tagging that is reasonably high for use in boiler waters may not be sufficiently high for cooling waters, since of course the intensity of fluorescence must not be overwhelmed by the background fluorescence and the intensity of fluorescence is dependent on the concentration level of the fluorescent species. Similarly, a polymer that is to be used at high concentration levels in a given background medium need not be tagged to the same extent as one that is to be used at much lower concentration levels, other parameters being the same.
Thus in Example 38 below a survey of relative performance values of a number of fluorescent derivatizing agents against a cooling water background is given as representative of the use of such screening method for any other group of derivatizing agents and any other type of background.
The relative performances of a variety of fluorescent derivatizing agents were surveyed against a cooling water background as follows. An aqueous solution of each agent at a concentration level of 0.4 ppm (acid actives) and the fluorescent intensity of each agent at its fluorescence maximum was determined, in comparison to a fluorescence reference standard. The standard used was 1,5-naphthalene disulfonic acid, which is not a derivatizing agent for the purposes of the present invention because it has no amine functionality. This standard was also measured at its fluorescence maximum in an aqueous solution at a concentration of 0.4 ppm (acid actives) and its intensity was assigned a "relative intensity value" of 100%. The "relative intensity values" of each of the other compositions tested were assigned in relationship to the intensity of the standard. For instance, a composition that had twice the intensity of the standard (the standard and the composition each being measured at their own fluorescence maximums) would be given a relative intensity value of 200%. Then the relative intensity values of the various compositions were compared to that of the cooling water background at the fluorescent maximum (peak excitation/emission wavelengths) of the composition. The cooling water fluorescent intensity employed was the average relative intensity of ten representative cooling water formulations measured for combination of wavelengths of excitation and emission within the range required for this survey. The relative performance for each composition thus is the value determined by dividing the relative intensity value determined for the fluorescence of each composition by the relative intensity value of the background fluorescence of cooling water at the same combination of wavelengths. The identities of the various compositions surveyed and the values determined are set forth below in Table VII.

rats = details: cited from earlier work

Compound	Fluorescent Maximum, emission (em) [1] [nm]	Fluorescent Maximum, excitation (ex) [1] [nm]	Relative Intensity Value, Composition [1] [%]	Relative Performance [1]	Detectable fluorescence in the survey (in words) ([1]; Table VII survey, 0.4 ppm)	Reported LD50 (oral/rats) (rats) [grams/kilogram]
1-amino-3,6-naphthalene trisulfonic acid	500	360	4	0		
O=S(=O)(O)c1cccc2c(S(=O)(=O)O)cccc12 [1,5-naphthalene disulfonic acid]	330	290	100	14		
Nc1cc(S(=O)(=O)O)cc2cccc(S(=O)(=O)O)c12 [1-amino-3,8-naphthalene disulfonic acid]	480	245	540	25		
Nc1ccc(S(=O)(=O)O)c2cccc(S(=O)(=O)O)c12 [1-amino-4,8-naphthalene disulfonic acid]	500	255	122	5		
Nc1ccc(S(=O)(=O)O)c2ccccc12 [1-amino-4-naphthalene sulfonic acid]	420	325	444	24		
Nc1cccc2c(S(=O)(=O)O)cccc12 [1-amino-5-naphthalene sulfonic acid]	480	240	14	0		
Nc1cccc2cc(S(=O)(=O)O)ccc12 [1-amino-6-naphthalene sulfonic acid]	485	245	74	3		
Nc1cccc2ccc(S(=O)(=O)O)cc12 [1-amino-7-naphthalene sulfonic acid]	480	340	80	7		
Nc1cccc2cccc(S(=O)(=O)O)c12 [1-amino-8-naphthalene sulfonic acid]			0	0	did not provide detectable fluorescence	
Nc1ccc2c(S(=O)(=O)O)cccc2c1S(=O)(=O)O [2-amino-1,5-naphthalene disulfonic acid]	420	250	486	49		
Nc1ccc2ccccc2c1S(=O)(=O)O [2-amino-1-naphthalene sulfonic acid]	485	245	150	7		
Nc1cc2ccc(S(=O)(=O)O)cc2cc1S(=O)(=O)O [2-amino-3,6-naphthalene disulfonic acid]	440	250	77	8		
Nc1cc(S(=O)(=O)O)c2cccc(S(=O)(=O)O)c2c1 [2-amino-4,8-naphthalene disulfonic acid]	440	245				
Nc1ccc2c(S(=O)(=O)O)cc(S(=O)(=O)O)cc2c1 [2-amino-5,7-naphthalene disulfonic acid]	460	250	776	97		2.0
Cc1ccc(N)c(S(=O)(=O)O)c1 [2-amino-5-methylbenzene sulfonic acid]	370	240	19	3		
Nc1ccc2c(S(=O)(=O)O)cccc2c1 [2-amino-5-naphthalene sulfonic acid]	440	245	750	82		
Nc1ccc2cc(S(=O)(=O)O)cc(S(=O)(=O)O)c2c1 [2-amino-6,8-naphthalene disulfonic acid]	445	250	69	7		> 5.0
Nc1ccc2cc(S(=O)(=O)O)ccc2c1 [2-amino-6-naphthalene sulfonic acid]	420	245	760	78		> 5.0
Nc1ccc2ccc(S(=O)(=O)O)cc2c1 [2-amino-7-naphthalene sulfonic acid]	440	245	446	48		
Nc1ccc2cccc(S(=O)(=O)O)c2c1 [2-amino-8-naphthalene sulfonic acid]	440	240	638	75		
Nc1ccccc1C(=O)O [2-amino-benzoic acid]	400	240	110	13		
Nc1cccc(C(=O)O)c1 [3-amino-benzoic acid]	370	240	21	3		
Nc1ccc(S(=O)(=O)O)cc1 [4-amino-benzene sulfonic acid]	340	250	26	8		
Nc1ccc(C(=O)O)cc1 [4-amino-benzoic acid]	340	270	82	13		
Nc1cc(S(=O)(=O)O)ccc1S(=O)(=O)O [amino-2,5-benzene disulfonic acid]	380	310	54	4		
Nc1ccccc1 [aniline]	340	230	4	1		0.25
